Values quoted from earlier work as cited in PMC8287028 (Frontiers in Veterinary Science, 2021).

System: Factor Xa
Design: method as in PMID 35442563
Conditions: 19 sick dogs, post-treatment monitoring; cited from earlier work

O=C(NC[C@H]1CN(c2ccc(N3CCOCC3=O)cc2)C(=O)O1)c1ccc(Cl)s1 [rivaroxaban]
dogs with aXa activities below the range associated with positive clinical outcomes in humans: 8/19 | dogs with aXa activities exceeding the range associated with positive clinical outcomes in humans: 8/19
